# Results: patent publication US5569655A, “Substituted heterocyclylisoquinolinium salts and compositions and method of use thereof” (Sterling Winthrop Inc., priority 1994, dated 1996)
# What was measured:
# [1] = target: PCP recognition sites (PCP receptor); assay: [3H]TCP radioreceptor assay (binding to PCP recognition sites); set-up: species or system rat (male Sprague-Dawley; settings: rat whole brain membranes, approx. 1 nM [3H]TCP; for Ki: mean of at least two determinations
# Protocol: [^3 H]TCP Radioreceptor Assay
# [^3 H]TCP binding to PCP recognition sites was performed as described by Vignon et al. Brain Research 1983, 280, 194-197. Male Sprague-Dawley rats were sacrificed by decapitation, and whole brains were homogenized in 10 volumes (wt/vol) of cold Tris-HCl buffer (50 mM, pH 7.7) using a Brinkmann Polytron (setting 6, 30 sec). The homogenate was centrifuged at 40,000×g for 10 min at 4° C. The supernatant was decanted, and the homogenization and centrifugation steps were repeated twice as described above. Following this, the pellet was resuspended in Tris-HCl (5 mM, pH 7.7) at a tissue concentration of 0.5-0.75 g/ml, and one ml aliquots were frozen at -70° C. until use. The binding characteristics for PCP recognition sites were not altered by the freezing of membrane suspensions.
# On the day of the assay, membrane aliquots were thawed, resuspended in fresh 5 mM Tris-HCl buffer at a tissue concentration of 1 mg/ml, and stored on ice until use. Each assay tube contained 100 μl of [^3 H]TCP at a final concentration of approximately 1 nM, 100 μl of various concentrations of the compounds of interest, 500 μl of the tissue suspension and 300 μl of buffer to a final assay volume of 1 ml and a final protein concentration of 0.5 mg/tube. Non-specific binding was defined by addition of a final concentration of 100 μM PCP to blank tubes. All tubes were incubated at room temperature for 25 min before termination of the reaction by rapid filtration over Whatman GF/B glass fiber filters that had been presoaked in a solution of 0.5% polyethylenimine for at least 1 hr prior to use. Filters were washed with three 4 ml volumes of cold Tris buffer. Following addition of scintillation cocktail, the amount of bound radioactivity was determined by liquid scintillation spectrometry using a Beckman LS 5000TA liquid scintillation counter with an efficiency for tritium of approximately 55%. Inhibition constants (Ki values) were calculated using the EBDA/LIGAND program (McPherson, J. Pharmacol. Meth. 1985, 14, 213-228), purchased from Elsevier/Biosoft, Inc. The results are reported as Ki values (in nM) which are expressed as the mean of at least two separate determinations, or as a percent (%) inhibition of binding at 10 μM.
# (§1) Table 4 summarizes the results obtained from the testing of representative compounds of the invention in the [^3 H]TCP radioreceptor assay as well as in the antagonism of NMDA-induced neurotoxicity in cultured neurons.
# [2] = system: NMDA-induced neurotoxicity in cultured cortical neurons; assay: Antagonism of NMDA-induced neurotoxicity in cultured neurons; type: cell-based, mouse (Swiss-Webster); settings: 500 μM NMDA for 30 minutes, LDH activity after 24 hours
# Protocol: Antagonism of NMDA-induced Neurotoxicity in Cultured Neurons
# Preparation of cultured cortical neurons
# Pregnant, Swiss-Webster mice were obtained from Taconic Farms (Germantown, N.Y.) and sacrificed 16 days post conception. Fetuses were removed and placed in a sterile dish containing Hank's balanced salt solution (HBSS), pH 7.4. Brain cortices were dissected, meninges were removed, the tissue was minced and placed into a solution of HBSS containing 0.25% (w/v) trypsin at 37° C. for 15 minutes. Tissue was then triturated with a sterile pasteur pipet, diluted with minimal essential media (Gibco 330-1430), pH 7.4, supplemented with 10% horse serum, 10% fetal calf serum, 2 mM 1-glutamine, 21 mM d-glucose, 2.2 g/L sodium bicarbonate, 1000 U/ml penicillin, and 1,000 μg/ml streptomycin. Cells were plated onto Falcon primaria 96 well plates at a final density of 50,000 cells/well and incubated at 37° C. in the presence of 5% (v/v) carbon dioxide. After 5 days, plating media was replaced with maintenance media containing minimal essential media (Gibco 330-1430), pH 7.4, supplemented with 10% horse serum, 10% 1-glutamine, 21 mM D-glucose, 2.2 g/l sodium bicarbonate,1,000 U/ml penicillin, 1,000 μg/ml streptomycin, and 10 μM cytosine arabinoside. On days 7 and 10, media was replaced with maintenance media as above lacking the cytosine arabinoside. Experiments were conducted on day 13.
# Neuroprotection Assessment
# Day 13 cultured cortical neurons were washed twice with minimal essential media, pH 7.4 and then exposed for 30 minutes to 500 μM N-methyl-D-aspartic acid (NMDA) with or without varying concentrations of test agents. […] MK-801 and test agents were prepared in minimal essential media supplemented with 21 mM d-glucose and 2.2 g/L sodium bicarbonate (MEM). After 30 minutes, media was replaced with MEM alone. Exposure of neurons to test agents was limited to the NMDA treatment period. Twenty-four hours after removal of NMDA, an aliquot of media from each well was removed for assessment of cell injury by determining lactate dehydrogenase (LDH) activity by the method of Wroblewski and LaDue Proc. Soc. Exp. Biol. Med. 1955, 90, 210-213. The results are expressed as an IC50 (in nM) value (concentration causing 50% inhibition) for the antagonism of NMDA-induced neurotoxicity.
# as §1
Structure (SMILES),Ki [1] [µM],other results
"c1ccc2c(c1)C1CC(c3ccoc3)(c3ccoc3)C2c2scc[n+]21 (racemic) [4(e), 11,11-di(3-furyl)-5,10-ethano-5,10-dihydrothiazolo[3,2-b]isoquinolinium chloride]",0.0029,"IC50 ([2]; Mus musculus, Cortical neurone): 0.05 µM"
"c1ccc2c(c1)C1CC(c3ccoc3)(c3ccoc3)C2c2scc[n+]21 (single isomer, unassigned; (+)) [5(e), (+)-11,11-di(3-furyl)-5,10-ethano-5,10-dihydrothiazolo[3,2-b]isoquinolinium chloride]",0.002,IC50 [2]: 0.02 µM
"c1ccc2c(c1)C1CC(c3ccoc3)(c3ccoc3)C2c2scc[n+]21 (single isomer, unassigned; (-)) [5(c), (-)-11,11-di(3-furyl)-5,10-ethano-5,10-dihydrothiazolo[3,2-b]isoquinolinium chloride]",0.005,"IC50 ([2]; Mus musculus, Cortical neurone): 0.032 µM"
"c1ccc(Cn2cc[n+]3c2C2c4ccccc4C3CC2(c2ccoc2)c2ccoc2)cc1 (centres unmarked) [2(F), 11,11-di(3-furyl)-5,10-ethano-5,10-dihydro-1-benzylimidazo[1,2-b]isoquinolin-4-ium chloride]",0.0077,–
"c1ccc(C2(c3ccccc3)CC3c4ccccc4C2c2scc[n+]23)cc1 (centres unmarked) [2(b), 11,11-diphenyl-5,10-ethano-5,10-dihydrothiazolo[1,2-b]isoquinolin-4-ium chloride]",0.0042,–
"Cn1cc[n+]2c1C1c3ccccc3C2CC1(c1ccccc1)c1ccccc1 (centres unmarked) [3(b), 11,11-diphenyl-5,10-ethano-5,10-dihydro-1-methylimidazo[1,2-b]isoquinolin-4-ium chloride]",0.013,–
"CCOC1(OCC)C2c3c(OC)cccc3C([n+]3ccsc32)C1(C)C (centres unmarked) [6(d), 11,11-diethoxy-12,12-dimethyl-9-methoxy-5,10-ethano-5,10-dihydrothiazolo[3,2-b]isoquinolinium chloride]",0.0092,"IC50 ([2]; Mus musculus, Cortical neurone): 0.079 µM"
"CCOC1(OCC)C2c3ccccc3C([n+]3ccn(C)c32)C1(C)C (centres unmarked) [7(F), 11,11-diethoxy-12,12-dimethyl-5,10-ethano-5,10-dihydro-1-methylimidazo[1,2-b]isoquinolin-4-ium chloride]",0.0082,"IC50 ([2]; Mus musculus, Cortical neurone): 0.053 µM"
"CCOC1(OCC)C2c3ccccc3C([n+]3ccn(Cc4ccccc4)c32)C1(C)C (centres unmarked) [8(b), 11,11-diethoxy-12,12-dimethyl-5,10-ethano-5,10-dihydro-1-benzylimidazo[1,2-b]isoquinolin-4-ium chloride]",0.01,–
"c1ccc(Cn2cc[n+]3c2C2c4ccccc4C3CC2(c2ccccc2)c2ccccc2)cc1 (centres unmarked) [9(b), 11,11-diphenyl-5,10-ethano-5,10-dihydro-1-benzylimidazo[1,2-b]isoquinolin-4-ium chloride]",0.089,–
"CCOC1(OCC)C2c3ccccc3C([n+]3cnn(C)c32)C1(C)C (centres unmarked) [10(b), 11,11-diethoxy-12,12-dimethyl-5,10-ethano-5,10-dihydro-1-methyl-1,2,4-triazolo[1,2-b]isoquinolin-4-ium chloride]",0.03,–
"Cn1nc[n+]2c1C1c3ccccc3C2CC1(c1ccccc1)c1ccccc1 (centres unmarked) [11(g), 11,11-diphenyl-5,10-ethano-5,10-dihydro-1-methyl-1,2,4-triazo[1,2-b]isoquinolin-4-ium chloride]",0.035,–
"Cn1nc[n+]2c1C1c3ccccc3C2CC1(c1ccoc1)c1ccoc1 (centres unmarked) [14(E), 11,11-di(3-furyl)-5,10-ethano-5,10-dihydro-1-methyl-1,2,4-triazolo[1,2-b]isoquinolin-4-ium chloride]",0.014,–
"COc1ccc(Cn2ccc(C3(c4ccn(Cc5ccc(OC)cc5)n4)CC4c5ccccc5C3c3scc[n+]34)n2)cc1 (centres unmarked) [18(e), 11,11-di-[(1-p-methoxybenzyl)-pyrazol-3-yl)]-5,10-ethano-5,10-dihydrothiazolo[3,2-b]isoquinolinium perchlorate]",–,[3H]TCP percent inhibition of binding @ 10 μM ([1]; 10 μM): 6%
"COc1ccc(Cn2cc[n+]3c2C2c4ccccc4C3CC2(c2ccoc2)c2ccoc2)cc1 (centres unmarked) [19(F), 11,11-di(3-furyl)-5,10-ethano-5,10-dihydro-1-(p-methoxybenzyl)imidazo[1,2-b]isoquinolin-4-ium chloride]",0.03,–
"c1ccc(-n2cc[n+]3c2C2c4ccccc4C3CC2(c2ccoc2)c2ccoc2)cc1 (centres unmarked) [199(f), 11,11-di(3-furyl)-5,10-ethano-5,10-dihydro-1-phenylimidazo[1,2-b]isoquinolin-4-ium chloride]",0.0522,–
"c1ccc(CCCn2cc[n+]3c2C2c4ccccc4C3CC2(c2ccoc2)c2ccoc2)cc1 (centres unmarked) [200(g), 11,11-di(3-furyl)-5,10-ethano-5,10-dihydro-1-(3-phenylpropyl)imidazo[1,2-b]isoquinolin-4-ium chloride]",0.0678,–
"CCCCn1cc[n+]2c1C1c3ccccc3C2CC1(c1ccoc1)c1ccoc1 (centres unmarked) [201(f), 11,11-di(3-furyl)-5,10-ethano-5,10-dihydro-1-butylimidazo-[1,2-b]isoquinolin-4-ium chloride]",0.0363,–
"c1ccc(Cn2cc[n+]3c2C2c4ccccc4C3CC2(c2cc[nH]n2)c2cc[nH]n2)cc1 (centres unmarked) [202(c), 11,11-di(pyrazol-3-yl)-5,10-ethano-5,10-dihydro-1-benzylimidazo-[1,2-b]isoquinolin-4-ium chloride]",0.0365,–
"c1ccc(C(c2ccccc2)n2cc[n+]3c2C2c4ccccc4C3CC2(c2ccoc2)c2ccoc2)cc1 (centres unmarked) [203(d), 11,11-di(3-furyl)-5,10-ethano-5,10-dihydro-1-(1,1-diphenylmethyl)imidazo[1,2-b]isoquinolin-4-ium hexafluorophosphate]",0.306,–
"c1ccc2c(c1)C1CC(c3ccoc3)(c3ccoc3)C2c2n(Cc3ccc4ccccc4c3)cc[n+]21 (centres unmarked) [204(e), 11,11-di(3-furyl)-5,10-ethano-5,10-dihydro-1-(2-naphthyl-methyl)imidazo[1,2-b]isoquinolin-4-ium chloride]",0.33,–
"c1ccc2c(c1)C1CC(c3ccoc3)(c3ccoc3)C2c2n(Cc3cccc4ccccc34)cc[n+]21 (centres unmarked) [205(e), 11,11-di(3-furyl)-5,10-ethano-5,10-dihydro-1(1-naphthylmethyl)imidazo[1,2-b]isoquinolin-4-ium chloride]",0.329,–
"COc1cccc2c1C1c3scc[n+]3C2CC1(c1ccoc1)c1ccoc1 (centres unmarked) [207(b), 11,11-di(3-furyl)-9-methoxy-5,10-ethano-5,10-dihydrothiazolo[3,2-b]isoquinolinium chloride]",0.0141,–
"O=C1CC(C2(C3=COC(=O)C3)CC3c4ccccc4C2c2scc[n+]23)=CO1.[O-][Cl+3]([O-])([O-])[O-] (centres unmarked) [Example 17, 11,11-di-(5-oxo-4,5-dihydro-3-furyl)-5,10-ethano-5,10-dihydrothiazolo[3,2-b]isoquinolinium perchlorate]",0.64,–
